The test system of the test is T1, phytase from A. terreus.
T1 construct: gene phyA; native, secreted; purified from solid-state culture on wheat bran (acetone, Sephadex G100, Sepharose 4B); 85 kDa subunit by SDS-PAGE
Nature of the test: released inorganic phosphate, ammonium molybdate colorimetry at […] nm. The test is classed as biochemical, Aspergillus terreus. The following applies: standard assay: potassium phosphate buffer pH 7.4, 40 °C, 15 min, table title misprinted as A. flavus GST.

Regarding `Nc1ncnc2c1ncn2[C@@H]1O[C@H](COP(=O)(O)OP(=O)(O)OP(=O)(O)O)[C@@H](O)[C@H]1O` [ATP], the Km (in general, the substrate concentration at which the rate is half of its maximum) amounted to 190 µM. On to `O=P(O)(O)OC[C@H]1OC(O)(COP(=O)(O)O)[C@@H](O)[C@@H]1O` (stereo partly drawn) [Fructose 1,6-diphosphate], for which the Km was determined as 280 µM. In the case of `O=P(O)(O)O[C@H]1[C@H](OP(=O)(O)O)[C@@H](OP(=O)(O)O)[C@H](OP(=O)(O)O)[C@@H](OP(=O)(O)O)[C@H]1OP(=O)(O)O` [Phytic acid] it was 25 µM.

(Values after publication PMC12239475, “Bioprocessing and characterization of thermostable phytase from Aspergillus terreus, an endophyte of Catharanthus roseus, with a potential activity to hydrolyze phytic acid in wheat bran” (BMC Biotechnology, 2025).)
